Consider eight compounds from patent publication US20130136712A1, “Malodor Control Compositions Comprising Malodor Control Polymers And Acid Catalysts And Methods Thereof” (priority 2011, published 2013).

For series [1] the following is noted: Table 1, Accord A; cited from earlier work.
Series [2] can be described thus: Sulfur odor control performance of zinc polymer complexes, headspace GC/MS. Particulars: spiked with 3 parts-per-million; 2 hours room temperature, 30 minutes 35° C.; Control = 1.0. As to the method:
Butanethiol and dipropoyl sulfide were chosen as chemical surrogates for sulfur containing odors such as kitchen (onion/garlic), sewage, etc. These two molecules also enable the assessment of efficacy of polymer for sulfur molecules having different degrees of hydrophobicity (e.g more hydrophobic dipropylsulfide is usually harder to mitigate with hydrophilic technologies such as cyclodextrin).
5 ml test solution was placed in a GC-MS vial and spiked with 3 parts-per-million of butanethiol or dipropylsulfide. The solutions were first equilibrated at room temperature for 2 hours, then incubated at 35° C. for 30 minutes. The headspace of each vial was finally sampled using a PDMS/SPME fiber and analyzed by GC/MS. The reductions in head space concentrations of sulfur molecules were measured and the data were normalized to Control (Table 9).

In series [3] the test system is Soiled sponge samples (microbe reduction). The series is described as follows: Odor prevention performance, SOLARIS detection of acidic respiratory byproducts. The format is cell-based. The note with it: sponge treated 15 minutes, dried 12 hours; incubated 120 hrs at 37° C. As to the method: The Control formulation containing no malodor control polymer or zinc salt, and Formulations containing individual polymers, zinc salts, and zinc-polymer complexes are compared for their effect on odor prevention, through microbe reduction.
Soiled sponge samples were cut into 1×6 cm strips and treated with the solutions (Table 10) for 15 minutes and dried at ambient temperature for 12 hours. The treated 1 cm strips were then cut into lx1 cm pieces, placed into SOLARIS scintillation vials, and 1 ml of MOPS buffer was added. The open vials were placed into outer SOLARIS vials containing thymolphthalein blue pH indicator and the vials were finally capped. The sealed vials were placed into a SOLARIS machine and incubated for 120 hrs at 37° C. Colorimetric measurements were conducted according to SOLARIS VIV protocol and the detection times of acidic respiratory byproducts were record (Table 10).

Series [4] can be described thus: Malodor control performance of HMPs, headspace SPME GC/MS of spiked test solution. The note with it: 5 ml test solution spiked with 5 microliters; 2 hours room temperature, 30 minutes 35° C.; Control = 1.0. As to the method: This example illustrates the malodor efficacy of the HMPs of the present invention. Isovaleric acid was chosen as a chemical surrogate for body odor while butylamine was used as a representative for amine-containing odors such as fish, pet urine, etc. Hydrophobic greasy cooking odors were represented by aldehydes such as nonanal.
The solutions are first equilibrated at room temperature for 2 hours, then incubated at 35° C. for 30 minutes. The headspace of each vial is finally sampled using a polydimethyl siloxane (PDMS) / Solid-Phase-Micro-Extraction (SPME) fiber and analyzed by GC/MS. The reductions in head space concentrations of odor molecules are measured and the data are normalized to Control.
Lower numbers denote high levels of malodor molecules present in the solution that are attributed to high malodor control efficacy of polymers.

For series [5] the following is noted: benchmark for HMPs; cited from earlier work.

Regarding `CC(C=O)Cc1ccc(C(C)C)cc1` (stereo not drawn) [Cymal, Alpha-methyl-p-isopropyl phenyl propyl aldehyde], the “VP(torr) @25° C.” value in series [1] is 0.007 torr.

With `C=CC(C)CCC=C(C)CCC=O` (stereo not shown) [Floral Super], the “VP(torr) @25° C.” value in series [1] was 0.030 torr.

Turning to `CC(C)c1cccc(C(C)CC=O)c1` (stereo not shown) [Florhydral, 3-(3-Isopropyl-phenyl)-butyraldehyde], the “VP(torr) @25° C.” value in series [1] was 0.008 torr.

Consider `C=CCCCCCCCCC=O` [Intreleven Aldehyde, undec-10-en-1-al], for which the “VP(torr) @25° C.” value in series [1] is 0.060 torr.

With `COC1CC2CC1C1CC(C=O)CC21` (stereo not shown) [Scentenal, octahydro-5-methoxy-4,7-Methano-1H-indene-2-carboxaldehyde], the “VP(torr) @25° C.” value in series [1] is recorded as 0.010 torr.

For `[Cl-].[Cl-].[Zn+2]` [ZnCl2], in series [2], the “Butanethiol head space concentration normalized to Control” value was 0.8 and the “Dipropylsulfide head space concentration normalized to Control” value stood at 1.0. Besides, in series [3], the “Respiratory Byproducts Detection Time” value came to 3.38 h. In series [4], the “Butylamine (Fish) head space concentration normalized to Control” value turned out to be 0.0, the “Isovaleric Acid (Body) head space concentration normalized to Control” value was found to be 1.0 and the “Nonanal (Grease) head space concentration normalized to Control” value is given as 1.0.

As to `COc1ccccc1C=O` [o-anisaldehyde], in series [1], the “VP(torr) @25° C.” value is 0.032 torr.

Turning to “hydroxypropyl modified beta cyclodextrin”, the “ambient temperature water solubility (benchmark)” value in series [5] is listed as ≥ 60 g/100 ml.
